{"source": "ChEMBL document CHEMBL3853350", "about": "(ACS Med Chem Lett, 2016)", "key": {"[1]": {"assay": "Volume of distribution at steady state in cynomolgus monkey plasma at 0.5 mg/kg, iv measured 24 hrs post dose by LC/MS/MS analysis", "type": "ADME, organism-based, Macaca fascicularis", "conditions": "read-out: Vdss"}, "[2]": {"assay": "AUC (0 to infinity) in CD-1 mouse plasma at 5 mg/kg administered via oral gavage measured 24 hrs post dose by LC/MS/MS analysis", "type": "ADME, organism-based", "design": "dose 5 mg/kg, time infinity, route oral"}, "[3]": {"assay": "Cmax in Beagle dog plasma at […] administered via oral gavage measured 24 hrs post dose by LC/MS/MS analysis", "type": "ADME, organism-based, Canis lupus familiaris", "design": "dose 2.5 mg/kg, route oral"}, "[4]": {"assay": "Volume of distribution at steady state in Beagle dog plasma at 0.5 mg/kg, iv measured 24 hrs post dose by LC/MS/MS analysis", "type": "ADME, organism-based, Canis lupus familiaris", "conditions": "read-out: Vdss"}, "[5]": {"assay": "Half life in Sprague-Dawley rat plasma at 1 mg/kg, iv by LC/MS/MS analysis", "type": "ADME, organism-based"}, "[6]": {"assay": "Half life in cynomolgus monkey plasma at 0.5 mg/kg, iv by LC/MS/MS analysis", "type": "ADME, organism-based, Macaca fascicularis"}, "[7]": {"assay": "Clearance in cynomolgus monkey plasma at 0.5 mg/kg, iv measured 24 hrs post dose by LC/MS/MS analysis", "type": "ADME, organism-based, Macaca fascicularis"}, "[8]": {"assay": "Half life in Beagle dog plasma at 0.5 mg/kg, iv by LC/MS/MS analysis", "type": "ADME, organism-based, Canis lupus familiaris"}, "[9]": {"assay": "Fraction unbound in monkey plasma at 1 uM after 5 hrs by rapid equilibrium dialysis based LC-MS/MS analysis", "type": "ADME, cell-free, Macaca mulatta", "conditions": "rhesus monkey"}, "[10]": {"assay": "Apparent permeability from apical to basolateral side in human Caco2 cells at 10 uM by lucifer yellow flux assay", "type": "ADME, cell-based", "conditions": "Caco-2"}, "[11]": {"assay": "Volume of distribution at steady state in CD-1 mouse plasma at 1 mg/kg, iv measured 24 hrs post dose by LC/MS/MS analysis", "type": "ADME, organism-based", "conditions": "read-out: Vdss"}, "[12]": {"assay": "Clearance in CD-1 mouse plasma at 1 mg/kg, iv measured 24 hrs post dose by LC/MS/MS analysis", "type": "ADME, organism-based"}, "[13]": {"assay": "Clearance in Sprague-Dawley rat plasma at 1 mg/kg, iv measured 24 hrs post dose by LC/MS/MS analysis", "type": "ADME, organism-based"}, "[14]": {"assay": "Half life in CD-1 mouse plasma at 1 mg/kg, iv by LC/MS/MS analysis", "type": "ADME, organism-based"}, "[15]": {"assay": "Fraction unbound in dog plasma at 1 uM after 5 hrs by rapid equilibrium dialysis based LC-MS/MS analysis", "type": "ADME, cell-free, Canis lupus familiaris"}, "[16]": {"molecular_target": "Voltage-gated inwardly rectifying potassium channel KCNH2 (Homo sapiens, UniProt Q12809)", "sequence (Q12809 whole entry)": "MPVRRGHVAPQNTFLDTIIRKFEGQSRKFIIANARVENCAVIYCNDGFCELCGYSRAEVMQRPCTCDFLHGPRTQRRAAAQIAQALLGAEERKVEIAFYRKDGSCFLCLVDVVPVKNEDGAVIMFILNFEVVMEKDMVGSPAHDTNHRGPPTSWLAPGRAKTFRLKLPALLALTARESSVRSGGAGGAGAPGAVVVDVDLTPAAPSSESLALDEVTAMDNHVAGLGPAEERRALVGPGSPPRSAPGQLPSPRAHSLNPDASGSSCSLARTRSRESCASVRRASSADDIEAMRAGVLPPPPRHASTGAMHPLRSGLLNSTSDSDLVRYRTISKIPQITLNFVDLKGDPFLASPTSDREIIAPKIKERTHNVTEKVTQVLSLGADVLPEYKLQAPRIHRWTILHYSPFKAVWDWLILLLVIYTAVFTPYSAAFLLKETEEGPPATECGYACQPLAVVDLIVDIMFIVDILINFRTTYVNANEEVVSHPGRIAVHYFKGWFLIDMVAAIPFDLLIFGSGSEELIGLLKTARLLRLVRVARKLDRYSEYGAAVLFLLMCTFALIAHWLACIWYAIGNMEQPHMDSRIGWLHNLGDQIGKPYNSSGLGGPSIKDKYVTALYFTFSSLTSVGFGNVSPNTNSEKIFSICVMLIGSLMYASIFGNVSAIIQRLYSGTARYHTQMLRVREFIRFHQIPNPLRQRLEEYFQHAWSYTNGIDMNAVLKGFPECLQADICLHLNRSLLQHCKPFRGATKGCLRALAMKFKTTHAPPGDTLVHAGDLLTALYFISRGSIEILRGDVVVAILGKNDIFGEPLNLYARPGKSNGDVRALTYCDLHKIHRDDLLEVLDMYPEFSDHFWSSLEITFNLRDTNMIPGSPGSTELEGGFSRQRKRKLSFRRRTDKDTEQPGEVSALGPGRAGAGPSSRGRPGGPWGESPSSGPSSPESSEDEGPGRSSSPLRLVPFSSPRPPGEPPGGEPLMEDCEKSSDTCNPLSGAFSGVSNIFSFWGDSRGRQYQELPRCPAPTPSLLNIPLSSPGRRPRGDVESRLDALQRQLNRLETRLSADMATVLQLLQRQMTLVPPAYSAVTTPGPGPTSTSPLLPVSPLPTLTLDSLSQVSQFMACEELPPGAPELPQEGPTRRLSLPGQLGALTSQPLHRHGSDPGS", "assay": "Inhibition of human ERG"}}, "data": [{"smiles": "C[C@H](NC(=O)c1c(N)nn2cccnc12)c1cc2cccc(C#Cc3cnn(C)c3)c2c(=O)n1-c1ccccc1", "note": "[EGANELISIB]", "values": [{"measurement": "Vd", "setting": "[1]", "result": 1.3, "unit": "L/kg"}, {"measurement": "AUC(0-inf)", "setting": "[2]", "result": 20600, "unit": "ng·h/mL"}, {"measurement": "Cmax at 24 h", "setting": "[3]", "result": 1900, "unit": "nM"}, {"measurement": "Vd", "setting": "[4]", "result": 1.3, "unit": "L/kg"}, {"measurement": "half-life", "setting": "[5]", "result": 4.4, "unit": "h"}, {"measurement": "half-life", "setting": "[6]", "result": 4.3, "unit": "h"}, {"measurement": "clearance", "setting": "[7]", "result": 4.3, "unit": "mL/min/kg"}, {"measurement": "half-life", "setting": "[8]", "result": 6.7, "unit": "h"}, {"measurement": "fraction unbound at 5 h, 1 µM", "setting": "[9]", "result": 0.04}, {"measurement": "Papp A→B at 10 µM", "setting": "[10]", "result": 13, "unit": "×10⁻⁶ cm/s"}, {"measurement": "Vd", "setting": "[11]", "result": 0.8, "unit": "L/kg"}, {"measurement": "clearance", "setting": "[12]", "result": 3.6, "unit": "mL/min/kg"}, {"measurement": "clearance", "setting": "[13]", "result": 4.4, "unit": "mL/min/kg"}, {"measurement": "half-life", "setting": "[14]", "result": 3.2, "unit": "h"}, {"measurement": "fraction unbound at 5 h, 1 µM", "setting": "[15]", "result": 0.028}, {"measurement": "IC50", "setting": "[16]", "result": "> 10", "unit": "µM"}]}]}
